From patent US4663325A, “1-(2,3,4-tri-methoxybenzyl)-4[bis(4-fluorophenyl)methyl] piperazines are useful for treating cerebrovascular disease” (Kanebo Ltd., priority 1984, dated 1987) come the findings set out here.

For data set [1], the system named is vertebral blood flow. In words: Activity of increasing cerebral blood flow (vertebral blood flow as index, anesthetized dogs, intravenous). The format is in vivo. The note with it: 1 mg/kg i.v. (right femoral vein), anesthetized mongrel dogs. As to the method:
The activity of increasing cerebral blood flow was measured by using the amount of vertebral blood flow as an index. Mongrel dogs of either sex (body weight 11 to 18 kg; four per groups) were anesthetized with sodium pentobarbital (30 mg/kg, by intravenous injection), and the right vertebral artery was isolated from the surrounding tissues. A flow probe was attached to it and led to an electromagnetic flow meter (MFV-2100 made by Nihon Kohden Co., Ltd.). The amount of blood flow was periodically measured [see Meth and Find Exptl Clin Pharmacol, 3 (6), 397 (1981)].
Each of the test compounds was dissolved in a 2% tartaric acid solution containing 20% dimethylacetamide, and administered to the right femoral vein in a dose of 1 mg/kg.

Data set [2] has as its system death induced by collagen and adrenaline. The data set is described as follows: Activity of defending thromboembolism-induced death (collagen and adrenaline, mice, oral). To be noted: Mus musculus, 1 h, one hour before collagen (400 micrograms/kg) and adrenaline (50 micrograms/kg) i.v., male ddY mice, probit method, read-out: ED50 (dose required to defend death induced by collagen and adrenaline to an extent of 50%). The data set is classed as in vivo, ddY-strain male mice. On the procedure:
The compounds A, B, C and D of the invention and the comparative compounds 1 and 2 were used.
Each of the test compounds was dissolved or suspended in a 1% gum arabic solution, and orally administered to ddY-strain male mice (body weight 18 to 25 g; five per group). […] The dose required to defend death induced by collagen and adrenaline to an extent of 50% (ED50) was determined by the probit method (see The Journal of Pharmacology and Experimental Therapeutics, Vol. 225, page 57, 1983).

The nature of data set [3]: Acute toxicity (oral, mice). The note with it: mouse, in vivo, fasted male ddY mice, deaths during seven days, Weil method. As to the method:
ddY-strain male mice (body weight 18 to 22 g; five per group) were caused to fast 24 hours. Then, each of the compounds of this invention (A, B, C and D) was administered orally, and acute toxicity values (LD50) were determined.
Each of the compounds was dissolved or suspended in a 2% tartaric acid solution containing 20% of dimethylacetamide, and orally administered to the animals. From the number of animals which died during seven days, the LD50 values were calculated by using the Weil method.

[4] abbreviates: 0.5 minutes after administration.
Where [5] appears, read: 10 minutes after administration.
Setting [6] is: 20 minutes after administration.

As for `COc1ccc(CN2CCN(C(c3ccccc3)c3ccc(F)cc3)CC2)c(OC)c1.O=C(O)/C=C/C(=O)O` (stereo not drawn) [A, 1-(2,4-Dimethoxybenzyl)-4-(4-fluorobenzhydryl)-piperazine fumarate], the “Increase (%) in vertebral blood flow (mean ± standard error)” value (shortened to “Increase (%) … (mean ± standard error)”) in data set [1] (setting [4]) came to 80.1 ± 17.0%; in data set [1] (3 minutes after administration) it was 56.5 ± 15.0%; in data set [1] (5 minutes after administration), 39.1 ± 12.2%; in data set [1] (setting [5]), 16.2 ± 5.4%; in data set [1] (setting [6]), 11.3 ± 4.1%. Besides, in data set [2], the ED50 is 29.6 mg/kg. The compound also displayed an LD50 at 168 h in data set [3] of 300 mg/kg.
As for `COc1ccc(CN2CCN(C(c3ccc(F)cc3)c3ccc(F)cc3)CC2)c(OC)c1.Cl.Cl.O.O` [B, 1-(2,4-Dimethoxybenzyl)-4-[bis(4-fluorophenyl)-methyl]piperazine dihydrochloride dihydrate], the “Increase (%) … (mean ± standard error)” value in data set [1] (setting [4]) stood at 105.6 ± 3.9%; in data set [1] (3 minutes after administration), 85.8 ± 15.0%; in data set [1] (5 minutes after administration) it was 77.0 ± 15.6%; in data set [1] (setting [5]), 47.5 ± 17.7%; in data set [1] (setting [6]), 27.1 ± 13.4%. Moreover, the ED50 in data set [2] stood at 24.6 mg/kg. This compound returned an LD50 at 168 h in data set [3] of 225 mg/kg.
For the compound `COc1ccc(CN2CCN(C(c3ccccc3)c3ccc(F)cc3)CC2)c(OC)c1OC.O=C(O)/C=C/C(=O)O` (stereo not drawn) [C, 1-(2,3,4-Trimethoxybenzyl)-4-(4-fluorobenzhydryl)piperazine fumarate], the “Increase (%) … (mean ± standard error)” value is recorded as 76.7 ± 15.1% in data set [1] (setting [4]); 61.2 ± 14.9% in data set [1] (3 minutes after administration); 50.6 ± 12.4% in data set [1] (5 minutes after administration); 27.7 ± 6.3% in data set [1] (setting [5]); 16.4 ± 4.6% in data set [1] (setting [6]). In data set [2], the ED50 worked out at 32.7 mg/kg. The compound further registered an LD50 at 168 h in data set [3] of 650 mg/kg.
On to `C(=Cc1ccccc1)CN1CCN(C(c2ccccc2)c2ccccc2)CC1` [Cinnarizine, 1-Cinnamyl-4-benzhydrylpiperazine, reference compound], for which the “Increase (%) … (mean ± standard error)” value came out at 65.6 ± 18.2% in data set [1] (setting [4]); 34.7 ± 15.6% in data set [1] (3 minutes after administration); 17.0 ± 8.7% in data set [1] (5 minutes after administration); 2.9 ± 3.8% in data set [1] (setting [5]); 0% in data set [1] (setting [6]).
For `COc1ccc(CN2CCN(C(c3ccc(F)cc3)c3ccc(F)cc3)CC2)c(OC)c1OC.Cl.Cl` [Compound D, 1-(2,3,4-Trimethoxybenzyl)-4-[bis(4-fluorophenyl)methyl]piperazine dihydrochloride], the “Increase (%) … (mean ± standard error)” value in data set [1] (setting [4]) came out at 95.9 ± 14.5%; in data set [1] (3 minutes after administration) it was 102.6 ± 24.5%; in data set [1] (5 minutes after administration), 107.0 ± 23.9%; in data set [1] (setting [5]) it was 87.0 ± 21.1%; in data set [1] (setting [6]) it was 65.1 ± 15.3%. In addition, the ED50 in data set [2] is 7.7 mg/kg. This compound showed an LD50 at 168 h in data set [3] of 300 mg/kg.
Take `COc1ccc(CN2CCN(C(c3ccccc3)c3ccccc3)CC2)c(OC)c1OC.Cl.Cl.O` [compound 1, 1-(2,3,4-Trimethoxybenzyl)-4-benzhydrylpiperazine dihydrochloride monohydrate, reference compound]: the “Increase (%) … (mean ± standard error)” value in data set [1] (setting [4]) came to 75.3 ± 20.0%; in data set [1] (3 minutes after administration), 39.2 ± 15.3%; in data set [1] (5 minutes after administration), 25.6 ± 12.5%; in data set [1] (setting [5]), 10.0 ± 5.3%; in data set [1] (setting [6]) it was 5.0 ± 3.3%. Also, the ED50 in data set [2] amounted to 55.4 mg/kg.
For `Cl.Cl.c1ccc(C(c2ccccc2)N2CCN(Cc3ccc4c(c3)OCO4)CC2)cc1` [compound 2, 1-(3,4-Methylenedioxybenzyl)-4-benzhydrylpiperazine dihydrochloride, reference compound], the “Increase (%) … (mean ± standard error)” value in data set [1] (setting [4]) worked out at 50.6 ± 13.2%; in data set [1] (3 minutes after administration), 13.5 ± 6.9%; in data set [1] (5 minutes after administration), 7.4 ± 4.9%; in data set [1] (setting [5]), 2.5 ± 3.3%; in data set [1] (setting [6]) it was 0.4 ± 2.2%. In addition, the ED50 in data set [2] was 44.7 mg/kg.

A word on the ED50: it is the dose that gives a 50% effect, or the effect in half of the subjects. For orientation: LD50 means the dose expected to kill half of the subjects tested. A low value points to greater toxicity.
